The values below come from paper PMC8848768, “Synthesis and evaluation of potent yaku'amide A analogs” (Chemical Science, 2022).

Numbered stars: 1 amine (or outer) side, 2 acyl side, 3 side chain; on linkers, the order of the positions; unused ones are H or OH. Square brackets hold non-standard residues; d marks the D form. Peptide text beside a SMILES is read from it. * marks the point of attachment. Heptanoyl(3-oxo-2,2,4S,6-Me) = CC(C)C[C@H](C)C(=O)C(C)(C)C(=O)*; NH((S)-1-NMe2-3-Me-but-2-yl) = CC(C)[C@@H](CN(C)C)N*; Ile(3R-OH) = CC[C@@](C)(O)[C@H](N)C(=O)O; dVal(3-OH) = CC(C)(O)[C@@H](N)C(=O)O; d(aIle) = CC[C@H](C)[C@@H](N)C(=O)O; Val(3-OH) = CC(C)(O)[C@H](N)C(=O)O; X1 = CCC(CC)=C(N[*:1])C(=O)[*:2]; ΔVal = CC(C)=C(N)C(=O)O

Usually IC50 stands for the concentration at which inhibition is half-maximal.

The subject of test [1] is MCF7. The settings on record: MCF7 (Breast Carcinoma), MTS, 72 hours, 37 °C, 5% CO2, 384-well, n>2 independent studies (in duplicate); for IC50: read-out: Aver IC50, MCF7. The protocol:
(§1) The antiproliferative activity profiles of 1a, its full-length analogs 2a and 2b, and its partial structures (23, 24, 26, and 30) were determined by in vitro screening in 72 hours MTS cell proliferation assays against a panel of 18 different human cancer cell lines. […] The three peptides were also evaluated for their antiproliferative activity against the lung fibroblast MRC5 cell line.
(§2) Cells (40 µ L) are added into individual wells of a 384-well black/clear bottom plate on day zero at concentrations enabling continuous log growth over the course of the assay. On day one, compounds (or DMSO) are transferred using an ATS-liquid handler (100 nL per well) to individual wells containing cells and the cells are treated for 72 hours (37 °C, 5% CO 2) prior to measuring proliferation using MTS reagent following manufacturer’s instructions. Net OD values are determined by subtracting the average OD values of cells (measured on day 1, T = 0) from average total OD value of cells (measured on day 4, T = 72h). IC 50 values are calculated using proprietary software (IC 50 values normalized against all compounds). Results represent n>2 independent studies (in duplicate).
(§3) Table S1. Antiproliferative Data of Compounds 1a, 2a, 2b, 23, 24, 26, and 30.
(§4) Table S2. Human Cell Line Descriptions.
(§5) Human Cell Line* Description
(§6) *All cells were obtained from ATCC and are authenticated

The test system of test [2] is panel of 18 different human cancer cell lines. Briefly: 72 h MTS cell proliferation assays, panel of cancer cell lines. The settings on record: against most of the cell lines, ca. It is filed as cell-based. How it is done: as §1, §2, §3, §4, §5, §6
The test system of test [3] is HCT116. Briefly: cells. The settings on record: read-out: Aver IC50, HCT116; HCT116 (Colon Carcinoma); MTS, 72 hours, 37 °C, 5% CO2, 384-well; n>2 independent studies (in duplicate). The protocol:
as §1, §2, §3, §4, §5, §6

Test [4] has as its system HL60. Briefly: cells. Particulars: read-out: Aver IC50, HL60; HL60 (Leukema - Promyelocytic); MTS, 72 hours, 37 °C, 5% CO2, 384-well; n>2 independent studies (in duplicate). The protocol:
as §1, §2, §3, §4, §5, §6

Test [5] has as its system HT29. In words: cells. The settings on record: read-out: Aver IC50, HT29; HT29 (Colon Carcinoma); MTS, 72 hours, 37 °C, 5% CO2, 384-well; n>2 independent studies (in duplicate). How it is done: as §1, §2, §3, §4, §5, §6
For test [6], the system named is lung fibroblast MRC5 cell line. In words: cells. The settings on record: read-out: Aver IC50, MRC5; MRC5 (Lung Fibroblast, noncancerous); MTS, 72 hours, 37 °C, 5% CO2, 384-well; n>2 independent studies (in duplicate). How it is done:
as §1, §2, §3, §4, §5, §6

Test [7] concerns SNUC1. Briefly: cells. Particulars: read-out: Aver IC50, SNUC1; SNUC1 (Colon Carcinoma); MTS, 72 hours, 37 °C, 5% CO2, 384-well; n>2 independent studies (in duplicate). How it is done:
as §1, §2, §3, §4, §5, §6

Test [8] concerns A375. Briefly: cells. Particulars: read-out: Aver IC50, A375; A375 (Malignant Melanoma); MTS, 72 hours, 37 °C, 5% CO2, 384-well; n>2 independent studies (in duplicate). How it is done:
as §1, §2, §3, §4, §5, §6

Test [9] has as its system JURKAT. In words: cells. The settings on record: read-out: Aver IC50, JURKAT; JURKAT (acute T-cell leukemia); MTS, 72 hours, 37 °C, 5% CO2, 384-well; n>2 independent studies (in duplicate). The protocol: as §1, §2, §3, §4, §5, §6
Test [10] deals with NCIH1048. In words: cells. Particulars: read-out: Aver IC50, NCIH1048; NCIH1048 (Lung - SCLC); MTS, 72 hours, 37 °C, 5% CO2, 384-well; n>2 independent studies (in duplicate). The protocol:
as §1, §2, §3, §4, §5, §6

The test system of test [11] is U937. In words: cells. Particulars: read-out: Aver IC50, U937; U937 (Pro-monocytic, Human Myeloid Leukemia); MTS, 72 hours, 37 °C, 5% CO2, 384-well; n>2 independent studies (in duplicate). The protocol:
as §1, §2, §3, §4, §5, §6

The test system of test [12] is RAMOS. Briefly: cells. Particulars: read-out: Aver IC50, RAMOS; RAMOS (Burkitt's lymphoma); MTS, 72 hours, 37 °C, 5% CO2, 384-well; n>2 independent studies (in duplicate). How it is done:
as §1, §2, §3, §4, §5, §6

The subject of test [13] is COLO678. Briefly: cells. Particulars: read-out: Aver IC50, COLO678; COLO678 (Colon Carcinoma); MTS, 72 hours, 37 °C, 5% CO2, 384-well; n>2 independent studies (in duplicate). The protocol:
as §1, §2, §3, §4, §5, §6

Test [14] has as its system A549. In words: cells. The settings on record: read-out: Aver IC50, A549; A549 (Lung - NSCLC); MTS, 72 hours, 37 °C, 5% CO2, 384-well; n>2 independent studies (in duplicate). The protocol:
as §1, §2, §3, §4, §5, §6

Test [15] relates to PANC1005. In words: cells. The settings on record: read-out: Aver IC50, PANC1005; PANC1005 (Pancreatic - Adenocarcinoma); MTS, 72 hours, 37 °C, 5% CO2, 384-well; n>2 independent studies (in duplicate). How it is done:
as §1, §2, §3, §4, §5, §6

The subject of test [16] is OVCAR3. Briefly: cells. The settings on record: read-out: Aver IC50, OVCAR3; OVCAR3 (Ovary - Adenocarcinoma); MTS, 72 hours, 37 °C, 5% CO2, 384-well; n>2 independent studies (in duplicate). How it is done:
as §1, §2, §3, §4, §5, §6

In test [17] the test system is THP1. In words: cells. The settings on record: read-out: Aver IC50, THP1; THP1 (Acute Monocytic Leukemia); MTS, 72 hours, 37 °C, 5% CO2, 384-well; n>2 independent studies (in duplicate). The protocol: as §1, §2, §3, §4, §5, §6
Test [18] concerns MV411. Briefly: cells. Particulars: read-out: Aver IC50, MV411; MV411 (Acute Myeloid Leukemia); MTS, 72 hours, 37 °C, 5% CO2, 384-well; n>2 independent studies (in duplicate). The protocol: as §1, §2, §3, §4, §5, §6
The subject of test [19] is CALU6. Briefly: cells. Particulars: read-out: Aver IC50, CALU6; CALU6 (Lung - Adenocarcinoma); MTS, 72 hours, 37 °C, 5% CO2, 384-well; n>2 independent studies (in duplicate). The protocol:
as §1, §2, §3, §4, §5, §6

The subject of test [20] is BXPC3. Briefly: cells. Particulars: read-out: Aver IC50, BXPC3; BXPC3 (Pancreatic - Adenocarcinoma); MTS, 72 hours, 37 °C, 5% CO2, 384-well; n>2 independent studies (in duplicate). The protocol: as §1, §2, §3, §4, §5, §6
Test [21] deals with P388 murine leukemia cells. Particulars: cited from earlier work. From the text:
The linear peptide yaku'amide A (1a, Fig. 1) was isolated by Matsunaga and co-workers from the deep-sea sponge Ceratopsion sp.[1] It contains several unusual β-tert-hydroxy amino acids (β-OHAAs) and tetrasubstituted dehydroamino acids (ΔAAs).

Turning to `CCC(CC)=C(NC(=O)[C@@H](NC(=O)C(C)(C)C(=O)[C@@H](C)CC(C)C)[C@](C)(O)CC)C(=O)NCC(=O)NC(C(=O)N[C@@H](C(=O)N[C@@H](C(=O)N[C@@H](C(=O)N[C@H](C(=O)NC(C(=O)N[C@H](C)C(=O)N[C@@H](C(=O)N[C@H](C(=O)NC(C(=O)N[C@H](CN(C)C)C(C)C)=C(C)C)C(C)C)C(C)C)=C(C)C)C(C)(C)O)C(C)(C)O)[C@@H](C)CC)C(C)C)=C(C)C` [Compound 2a] ({Heptanoyl(3-oxo-2,2,4S,6-Me)}-[Ile(3R-OH)][X1]G[ΔVal][dV][d(aIle)][dVal(3-OH)][Val(3-OH)][ΔVal][dA][dV]V[ΔVal]-{NH((S)-1-NMe2-3-Me-but-2-yl)}), the concentration for half-maximal inhibition (IC50) in test [1] amounted to 13 µM; in [3], 1.13 µM; in test [4], 0.37 µM; in test [5], 2.27 µM; in test [6], 5.47 µM; in test [7] it was 0.0344 µM. Moreover, the IC50 is 1.51 µM in [8]; 4.21 µM in [9]; 1.31 µM in [10]; 0.435 µM in test [11]; 0.362 µM in [12]; 2.01 µM in test [13]. Also, the IC50 stood at 0.0865 µM in [14]; 1.97 µM in test [15]; 0.0814 µM in test [16]; 9.19 µM in test [17]; 0.0208 µM in [18]; 0.578 µM in [19]. In test [20], the IC50 came to 3.9 µM. Also, in test [2], the “Increased potency compared to 2b” value was 2–4 fold.

With “yaku'amide A [Compound 1a, reference compound]”, the “Aver IC50, MCF7” value in test [1] was “potent”. Further, the IC50 was 0.125 µM in [1]; 1.74 µM in test [3]; 0.578 µM in test [4]; 2.89 µM in [5]; 14.5 µM in test [6]; 0.129 µM in test [7]. The IC50 in test [8] was found to be 2.14 µM; in [9], 4.95 µM; in test [10], 3.11 µM; in test [11] it was 1.21 µM; in test [12], 0.975 µM; in test [13], 2.69 µM. In addition, the IC50 in test [14] stood at 0.108 µM; in [15] it was 2.83 µM; in [16] it was 0.227 µM; in [17], 9.29 µM; in test [18] it was 0.119 µM; in [19], 2.22 µM. Moreover, the IC50 in test [20] amounted to 3.82 µM. Moreover, the “IC50, growth inhibition of P388 murine leukemia cells” value in test [21] was 0.014 mg/L.
